The record followed here is ChEMBL document CHEMBL1138389, “Identification of selective neuropeptide Y2 peptide agonists” (Bioorg Med Chem Lett, 2007).

Bridge positions count the residues as written; N and C are the ends. Peptide text beside a SMILES is read from it. Some results are limits rather than exact numbers.

For test [1], the target named is T1, Neuropeptide Y receptor type 2 (Homo sapiens, UniProt P49146).
T1 sequence (P49146 whole entry): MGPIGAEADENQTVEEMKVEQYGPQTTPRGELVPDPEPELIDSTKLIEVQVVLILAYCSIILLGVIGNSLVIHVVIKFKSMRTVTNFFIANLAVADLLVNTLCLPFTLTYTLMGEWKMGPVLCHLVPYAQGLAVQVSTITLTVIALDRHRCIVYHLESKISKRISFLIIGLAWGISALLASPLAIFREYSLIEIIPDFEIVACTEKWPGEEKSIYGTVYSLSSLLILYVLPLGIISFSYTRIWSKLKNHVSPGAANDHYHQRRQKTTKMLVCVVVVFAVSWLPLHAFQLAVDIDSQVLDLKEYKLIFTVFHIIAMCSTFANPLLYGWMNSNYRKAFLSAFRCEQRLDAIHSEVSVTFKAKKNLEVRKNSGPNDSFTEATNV
Description: Agonist activity at human NPY2 receptor expressed in human KAN-TS cells by [35S]GTP-gamma-S incorporation assay. In kind it is functional, cell-based.

The target in test [2] is T2, Neuropeptide Y receptor type 1 (Homo sapiens, UniProt P25929).
T2 sequence (P25929 whole entry): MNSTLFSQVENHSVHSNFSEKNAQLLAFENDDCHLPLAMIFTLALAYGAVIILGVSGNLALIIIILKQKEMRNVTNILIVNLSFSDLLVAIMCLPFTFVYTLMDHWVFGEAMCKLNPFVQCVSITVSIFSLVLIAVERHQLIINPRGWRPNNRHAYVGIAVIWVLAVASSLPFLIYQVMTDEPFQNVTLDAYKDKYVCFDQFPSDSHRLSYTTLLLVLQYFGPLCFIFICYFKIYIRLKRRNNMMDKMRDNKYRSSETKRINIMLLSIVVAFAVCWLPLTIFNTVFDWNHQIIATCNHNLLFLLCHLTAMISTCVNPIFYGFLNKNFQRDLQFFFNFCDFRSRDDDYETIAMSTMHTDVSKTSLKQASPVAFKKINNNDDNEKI
As to the kind of experiment: Displacement of [125I]PYY from NPY1 receptor expressed in human SK-N-MC cells. The test is classed as cell-based.

The target in test [3] is T3, Neuropeptide Y receptor type 5 (Homo sapiens, UniProt Q15761).
T3 sequence (Q15761 whole entry): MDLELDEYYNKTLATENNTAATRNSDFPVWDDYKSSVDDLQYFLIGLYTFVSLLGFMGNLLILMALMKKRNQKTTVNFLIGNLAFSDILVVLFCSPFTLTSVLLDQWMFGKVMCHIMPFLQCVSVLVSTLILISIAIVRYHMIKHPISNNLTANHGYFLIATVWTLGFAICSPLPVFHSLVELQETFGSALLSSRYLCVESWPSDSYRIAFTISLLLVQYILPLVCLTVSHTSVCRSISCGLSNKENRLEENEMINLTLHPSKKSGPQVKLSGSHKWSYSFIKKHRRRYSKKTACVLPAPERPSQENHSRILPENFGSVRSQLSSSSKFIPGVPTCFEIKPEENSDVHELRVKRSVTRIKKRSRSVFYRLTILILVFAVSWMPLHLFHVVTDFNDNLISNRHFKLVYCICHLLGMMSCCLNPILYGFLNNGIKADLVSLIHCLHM
Description: Displacement of [125I]PYY from NPY5 receptor expressed in human HEK293 cells. In kind it is cell-based.

Test [4] deals with T1, Neuropeptide Y receptor type 2. Description: Displacement of human [125I]PYY from NPY2 receptor expressed in human KAN-TS cells. In kind it is cell-based.

`CC[C@H](C)[C@@H]1NC(=O)[C@H](CC(C)C)NC(=O)[C@H](CC(N)=O)NC(=O)[C@@H](NC(=O)[C@H](Cc2ccc(O)cc2)NC(=O)[C@H](Cc2cnc[nH]2)NC(=O)[C@H](CCCN=C(N)N)NC(C)=O)CCCCNC(=O)CC[C@@H](C(=O)N[C@@H](CCCN=C(N)N)C(=O)N[C@@H](CCC(N)=O)C(=O)N[C@@H](CCCN=C(N)N)C(=O)N[C@@H](Cc2ccc(O)cc2)C(N)=O)NC1=O` (Ac-RHYKNLIERQRY-NH2; lactam 4-8) yielded an EC50 in test [1] (kan-ts) of 31 nM. In addition, the results for the Ki in test [2] (sk-n-mc), in test [3] (hek293) and in test [4] (kan-ts) were above 1000 nM, above 1000 nM and 75 nM, respectively.

As to Ac-HYLNLVTRQRY-NH2, the EC50 in test [1] was 430 nM. Also, the Ki in test [2] was above 1000 nM; in test [3], above 1000 nM; in test [4], 670 nM.

In test [1], `CC(=O)N[C@@H](C)C(=O)N[C@@H](CO)C(=O)N[C@@H](CC(C)C)C(=O)N[C@@H](CCCNC(=N)N)C(=O)N[C@@H](Cc1cnc[nH]1)C(=O)N[C@@H](Cc1ccc(O)cc1)C(=O)N[C@@H](CC(C)C)C(=O)N[C@@H](CC(N)=O)C(=O)N[C@@H](CC(C)C)C(=O)N[C@H](C(=O)N[C@H](C(=O)N[C@@H](CCCNC(=N)N)C(=O)N[C@@H](CCC(N)=O)C(=O)N[C@@H](CCCNC(=N)N)C(=O)N[C@@H](Cc1ccc(O)cc1)C(N)=O)[C@@H](C)O)C(C)C` had an EC50 of 13 nM. Also, the inhibitory constant (Ki) is 118 nM in test [2] and 9 nM in test [4].
